# The supplement of paper PMC10307832
# Columns and labels:
# Assay in all cases: relative viability (nuclei count vs DMSO), 5 days (fraction); higher = more cells survive
# [1] = compound: Nc1nc(Nc2ccc3c(c2)CC[C@@H](N2CCCC2)CC3)nn1-c1cc2c(nn1)-c1ccccc1CCC2 [Bemcentinib] + CC(=O)c1c(C)c2cnc(Nc3ccc(N4CCNCC4)cn3)nc2n(C2CCCC2)c1=O [Palbociclib] (partner 0.5 µM)
# Outline: (§1)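 Lung cancer cell lines in 1536-well plates got either a single drug or a fixed anchor-drug dose together with five library-drug doses (not always all listed) in √10 steps, by pin tool, on the day after seeding. Nuclei were counted after 5 days, and relative viability is the treated-to-vehicle ratio of nuclei counts. Values are medians of duplicate plates.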
# [2] = compound: CC1=CC=C(C=C1)C(=O)CN2C3=C(CCCC3)SC2=N [Pifithrin_alpha] + NC(=O)Nc1cc(-c2cccc(F)c2)sc1C(=O)N[C@H]1CCCNC1 [AZD7762] (partner 0.2 µM)
# Outline: as §1
# [3] = compound: CC1=CC=C(C=C1)C(=O)CN2C3=C(CCCC3)SC2=N [Pifithrin_alpha] + CC1(C)CCC(c2ccc(Cl)cc2)=C(CN2CCN(c3ccc(C(=O)NS(=O)(=O)c4ccc(N[C@H](CCN5CCOCC5)CSc5ccccc5)c(S(=O)(=O)C(F)(F)F)c4)cc3)CC2)C1 [Navitoclax] (partner 0.5 µM)
# Outline: as §1
# [4] = compound: CNC(=O)c1ccccc1Sc1ccc2c(/C=C/c3ccccn3)n[nH]c2c1 [Axitinib] + CC(=O)c1c(C)c2cnc(Nc3ccc(N4CCNCC4)cn3)nc2n(C2CCCC2)c1=O [Palbociclib] (partner 0.5 µM)
# Outline: as §1
Cell Line,relative viability ([1]; first compound 0.04 µM),relative viability ([1]; first compound 0.1265 µM),relative viability ([1]; first compound 0.4 µM),relative viability ([1]; first compound 1.265 µM),relative viability ([1]; first compound 4 µM),relative viability ([2]; first compound 1 µM),relative viability ([2]; first compound 3.162 µM),relative viability ([2]; first compound 10 µM),relative viability ([2]; first compound 31.62 µM),relative viability ([2]; first compound 100 µM),relative viability ([3]; first compound 1 µM),relative viability ([3]; first compound 3.162 µM),relative viability ([3]; first compound 10 µM),relative viability ([3]; first compound 31.62 µM),relative viability ([3]; first compound 100 µM),relative viability ([4]; first compound 0.005 µM),relative viability ([4]; first compound 0.01581 µM),relative viability ([4]; first compound 0.05 µM),relative viability ([4]; first compound 0.1581 µM),relative viability ([4]; first compound 0.5 µM)
A-427,0.55,0.515,0.534,0.532,0.532,0.692,0.675,0.666,0.644,0.672,0.803,0.843,0.79,0.773,0.933,0.491,0.511,0.564,0.567,0.543
NCI-H2126,0.342,0.334,0.364,0.385,0.357,0.79,1.05,0.949,0.799,0.915,0.787,0.8,0.73,0.738,0.771,0.345,0.348,0.347,0.327,0.343
NCI-H647,0.43,0.445,0.387,0.315,0.462,,0.368,0.307,0.361,0.287,0.814,1.07,0.86,,1.03,0.554,0.375,0.475,0.395,0.421
ChaGo-K-1,0.963,0.953,1.02,0.954,0.938,0.905,0.947,0.872,0.683,0.866,0.873,0.999,0.888,0.734,0.891,0.88,0.947,0.972,0.863,1
UMC-11,0.354,0.343,0.323,0.349,0.324,,,,,,0.288,0.312,0.312,0.337,0.331,0.316,0.318,0.313,0.302,0.311
LOU-NH91,0.521,0.564,0.525,0.513,0.537,0.625,0.755,0.683,0.589,0.604,0.502,0.576,0.643,0.409,0.517,0.564,0.568,0.537,0.444,0.527
HCC-44,1.02,1.03,0.96,1.01,1.1,0.91,0.977,0.985,0.869,0.888,0.8,0.899,0.795,0.701,0.801,0.946,0.967,0.988,0.96,1.04
HCC-15,0.767,0.976,0.739,0.728,0.737,1.28,1.27,1.03,1.1,1.3,0.681,0.697,0.524,0.441,0.525,0.764,0.766,0.749,0.703,0.65
NCI-H661,0.384,0.385,0.439,0.375,0.382,,,,,,,,,,,0.412,0.392,0.424,0.405,0.428
NCI-H522,0.834,1.04,1.07,1.1,0.915,0.835,1.11,0.851,0.799,0.802,,,,,,0.892,0.966,1.01,1.05,0.915
NCI-H1703,,,,,,,0.139,0.101,0.182,0.109,1.34,0.99,1.1,0.674,1.12,,,,,
NCI-H2009,0.185,0.21,0.225,0.239,0.261,,,,,,1.24,1.1,1.05,0.784,0.957,0.257,0.295,0.203,0.233,0.255
Calu-6,,,,,,,,,,,0.976,0.741,0.781,0.508,0.704,,,,,
NCI-H596,,,,,,1.18,0.967,0.926,0.939,1.03,0.844,0.891,0.9,0.88,1.13,,,,,
NCI-H2023,0.416,0.398,0.388,0.437,0.425,,,,,,0.914,0.968,0.8,0.676,0.822,0.393,0.447,0.363,0.34,0.412
EBC-1,,,,,,,,,,,0.386,0.318,0.29,0.221,0.224,,,,,
SW 900,0.58,0.594,0.518,0.538,0.591,0.567,0.497,0.622,0.41,0.424,,,,,,0.629,,0.587,0.502,0.6
NCI-H1299,,,,,,,,,,,1.07,1.08,1,0.952,1,,,,,
NCI-H1650,0.324,0.366,0.307,0.354,0.373,,,,,,1.31,1.15,0.973,0.675,0.865,0.423,0.322,0.412,0.313,0.486
LCLC-103H,0.459,0.438,0.522,0.497,0.554,0.792,0.846,0.791,0.721,0.85,,,,,,0.475,0.464,0.493,0.474,0.451
SK-LU-1,0.338,0.446,0.393,0.487,0.37,,,,,,1.07,1.07,1.07,0.626,0.823,0.433,0.406,0.38,0.368,0.355
ABC-1,0.532,0.825,0.654,0.655,0.639,,0.977,0.8,0.726,0.679,,,,,,0.756,,0.632,0.626,0.854
